Where only a bound is given, the exact number is not on record here.

One experiment has as its target T1, IL-17A/F (Homo sapiens, UniProt Q16552+Q96PD4).
T1 construct: purchased R&D Systems
T1 sequence (Q16552 24-155): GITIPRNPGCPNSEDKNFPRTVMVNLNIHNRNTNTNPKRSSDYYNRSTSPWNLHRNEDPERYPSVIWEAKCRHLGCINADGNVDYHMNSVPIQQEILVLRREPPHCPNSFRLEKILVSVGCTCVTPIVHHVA
T1 sequence (Q96PD4 31-163): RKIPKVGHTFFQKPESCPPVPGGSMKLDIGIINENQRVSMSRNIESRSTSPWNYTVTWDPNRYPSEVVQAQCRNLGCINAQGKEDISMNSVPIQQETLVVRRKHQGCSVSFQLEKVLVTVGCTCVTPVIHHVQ
The experiment in a line: IL-17A/F HEK-Blue cell assay (SEAP reporter). Format: cell-based. The settings on record: HEK-Blue IL-17A reporter cells, IL17A/F 5 ng/mL, 20 hours, SEAP read at A630; read-out: HEK-Blue IL17AF (IC50 for IL-17A/F inhibition).

In another experiment the target is T2, IL-17A/A (Homo sapiens, UniProt Q16552).
T2 construct: purchased Genscript Z03228
T2 sequence (Q16552 24-155): T1 sequence (Q16552 24-155)
As to the kind of experiment: IL-17A/A HEK-Blue cell assay (SEAP reporter). The experiment is classed as cell-based. The settings on record: HEK-Blue IL-17A reporter cells, IL17A/A 5 ng/mL, 20 hours, SEAP read at A630; read-out: HEK-Blue IL17AA (IC50 for IL-17A/A inhibition).

On to `CCn1nccc1C(=O)N[C@H](c1cn2nc(C[C@H]3C[C@@H](C(F)(F)F)CNC3=O)c(CN3CCOCC3)nc2n1)C1CCC(F)(F)CC1` [Compound 142, N—((S)-(4,4-difluorocyclohexyl)(3-(morpholinomethyl)-2-(((3R,5R)-2-oxo-5-(trifluoromethyl)piperidin-3-yl)methyl)imidazo[1,2-b][1,2,4]triazin-6-yl)methyl)-1-ethyl-1H-pyrazole-5-carboxamide], for which the IC50 on IL-17A/F is more than 1000 nM; at IL-17A/A it was less than 100 nM.
Regarding `CCn1nccc1C(=O)N[C@H](c1cn2nc(CC3C[C@@H](C(F)(F)F)CNC3=O)cnc2n1)C1CCC(F)(F)CC1` (single isomer, unassigned) [Compound 4], the IC50 at IL-17A/F is more than 1000 nM; on IL-17A/A it was less than 100 nM.
On to `CCn1nccc1C(=O)N[C@H](c1cn2nc(C[C@H]3C[C@H](C)CNC3=O)c(C3CCOCC3)nc2n1)C1CCC(F)(F)CC1` [Compound 219], for which the figures for the IC50 at IL-17A/F and on IL-17A/A were 100 to 1000 nM and less than 100 nM, respectively.
For `CCn1nccc1C(=O)N[C@H](c1cn2nc(C[C@H]3C[C@@H](C(F)(F)F)CNC3=O)c(N3CCOCC3)nc2n1)C1CCCCC1` [Compound 326, N—((S)-cyclohexyl(3-morpholino-2-(((3R,5R)-2-oxo-5-(trifluoromethyl)piperidin-3-yl)methyl)imidazo[1,2-b][1,2,4]triazin-6-yl)methyl)-1-ethyl-1H-pyrazole-5-carboxamide] the same measures were 100 to 1000 nM and less than 100 nM.
Consider `O=C(N[C@H](c1cn2nc(C[C@H]3C[C@@H](C(F)(F)F)CNC3=O)c(C3CCOCC3)nc2n1)C1CCC(F)(F)CC1)c1conc1C1CC1(F)F` (single isomer, unassigned) [Compound 145], for which the IC50 on IL-17A/F was 100 to 1000 nM; on IL-17A/A, less than 100 nM.
For `CCn1nccc1C(=O)N[C@H](c1cn2nc(C[C@H]3C[C@@H](C(F)(F)F)CNC3=O)c(C3CCCN(CCOC)C3)nc2n1)C1CCC(F)(F)CC1` (stereo partly drawn) [Compound 226, N-((1S)-(4,4-difluorocyclohexyl)(3-(1-(2-methoxyethyl)piperidin-3-yl)-2-(((3R,5R)-2-oxo-5-(trifluoromethyl)piperidin-3-yl)methyl)imidazo[1,2-b][1,2,4]triazin-6-yl)methyl)-1-ethyl-1H-pyrazole-5-carboxamide] the same measures were more than 1000 nM and less than 100 nM.
For the compound `CCn1nccc1C(=O)N[C@H](c1cn2nc(C[C@H]3C[C@@H](C(F)(F)F)CNC3=O)c(N3CC4(CCOC4)C3)nc2n1)C1CCC(F)(F)CC1` [Compound 193, N—((S)-(4,4-difluorocyclohexyl)(2-(((3R,5R)-2-oxo-5-(trifluoromethyl)piperidin-3-yl)methyl)-3-(6-oxa-2-azaspiro[3.4]octan-2-yl)imidazo[1,2-b][1,2,4]triazin-6-yl)methyl)-1-ethyl-1H-pyrazole-5-carboxamide], the IC50 on IL-17A/F is 100 to 1000 nM; on IL-17A/A it was less than 100 nM.
For `O=C(N[C@H](c1cn2nc(C[C@H]3C[C@@H](C(F)(F)F)CNC3=O)c(N3CCOCC3)nc2n1)C1CCC(F)(F)CC1)OCc1cc(C(F)(F)F)on1` [Compound 181, (5-(trifluoromethyl)isoxazol-3-yl)methyl ((S)-(4,4-difluorocyclohexyl)(3-morpholino-2-(((3R,5R)-2-oxo-5-(trifluoromethyl)piperidin-3-yl)methyl)imidazo[1,2-b][1,2,4]triazin-6-yl)methyl)carbamate] the same measures were more than 1000 nM and less than 100 nM.
For `CCn1nccc1C(=O)N[C@H](c1cn2nc(C[C@H]3C[C@@H](C(F)(F)F)CNC3=O)c(C(C)C)nc2n1)[C@H]1CC[C@H](C)CC1` [Compound 110, 1-ethyl-N-((1S)-(3-isopropyl-2-(((3R,5R)-2-oxo-5-(trifluoromethyl)piperidin-3-yl)methyl)imidazo[1,2-b][1,2,4]triazin-6-yl)((1r,4S)-4-methylcyclohexyl)methyl)-1H-pyrazole-5-carboxamide] the same measures were 100 to 1000 nM and less than 100 nM.
Consider `CCn1nccc1C(=O)N[C@H](c1cn2nc(C[C@H]3C[C@@H](C(F)(F)F)CNC3=O)c(N3CCO[C@@H](C)C3)nc2n1)[C@H]1CC[C@H](C)CC1` [Compound 158, 1-ethyl-N—((S)-((1r,4S)-4-methylcyclohexyl)(3-((S)-2-methylmorpholino)-2-(((3R,5R)-2-oxo-5-(trifluoromethyl)piperidin-3-yl)methyl)imidazo[1,2-b][1,2,4]triazin-6-yl)methyl)-1H-pyrazole-5-carboxamide], for which the results for the IC50 at IL-17A/F and on IL-17A/A were 100 to 1000 nM and less than 100 nM, respectively.
On to `CCc1nonc1C(=O)N[C@H](c1cn2nc(C[C@H]3C[C@@H](C(F)(F)F)CNC3=O)c(C3CCOCC3)nc2n1)C1CCC(F)(F)CC1` [Compound 149, N-((1S)-(4,4-difluorocyclohexyl)(2-(((3R,5R)-2-oxo-5-(trifluoromethyl)piperidin-3-yl)methyl)-3-(tetrahydro-2H-pyran-4-yl)imidazo[1,2-b][1,2,4]triazin-6-yl)methyl)-4-ethyl-1,2,5-oxadiazole-3-carboxamide], for which the figures for the IC50 on IL-17A/F and on IL-17A/A were 100 to 1000 nM and less than 100 nM, respectively.
Taken in the same sequence, the figures for `CCn1nccc1C(=O)N[C@H](c1cn2nc(C[C@H]3C[C@@H](C(F)(F)F)CNC3=O)c(N3CCOCC3)nc2n1)C1CCC(F)(F)CC1` [Compound 46] were 100 to 1000 nM and less than 100 nM.
As to `C[C@H]1CC[C@H]([C@H](NC(=O)C2(F)CC2)c2cn3nc(CC4C[C@@H](C(F)(F)F)CNC4=O)c(N4CCOCC4)nc3n2)CC1` (single isomer, unassigned) [Compound 120], the IC50 at IL-17A/F was more than 1000 nM; at IL-17A/A it was 100 to 1000 nM.
Take `O=C(N[C@H](c1cn2nc(C[C@H]3C[C@@H](C(F)(F)F)CNC3=O)c(C3CCOCC3)nc2n1)C1CCC(F)(F)CC1)OCc1cc(C(F)(F)F)on1` [Compound 183, (5-(trifluoromethyl)isoxazol-3-yl)methyl ((1S)-(4,4-difluorocyclohexyl)(2-(((3R,5R)-2-oxo-5-(trifluoromethyl)piperidin-3-yl)methyl)-3-(tetrahydro-2H-pyran-4-yl)imidazo[1,2-b][1,2,4]triazin-6-yl)methyl)carbamate]: the IC50 was 100 to 1000 nM at IL-17A/F and less than 100 nM on IL-17A/A.
Taken in the same sequence, the figures for `CCn1nccc1C(=O)N[C@H](c1cn2nc(C[C@H]3C[C@@H](C(F)(F)F)CNC3=O)c(N3CCN(CC4CC4)CC3)nc2n1)C1CCC(F)(F)CC1` [Compound 244, N—((S)-(3-(4-(cyclopropylmethyl)piperazin-1-yl)-2-(((3R,5R)-2-oxo-5-(trifluoromethyl)piperidin-3-yl)methyl)imidazo[1,2-b][1,2,4]triazin-6-yl)(4,4-difluorocyclohexyl)methyl)-1-ethyl-1H-pyrazole-5-carboxamide] were 100 to 1000 nM and less than 100 nM.
Take `CC(C)n1nccc1C(=O)N[C@H](c1cn2nc(C[C@H]3C[C@@H](C(F)(F)F)CNC3=O)cnc2n1)C1CCC(F)(F)CC1` [Compound 34]: the IC50 was more than 1000 nM at IL-17A/F and less than 100 nM on IL-17A/A.
Take `CCn1nccc1C(=O)N[C@@H](CCC(C)(C)C(F)(F)F)c1cn2nc(C[C@H]3C[C@@H](C(F)(F)F)CNC3=O)c(C3CCOCC3)nc2n1` (single isomer, unassigned) [Compound 217]: the figures for the IC50 at IL-17A/F and at IL-17A/A were more than 1000 nM and less than 100 nM, respectively.
For `CCn1ncnc1C(=O)N[C@H](c1cn2nc(C[C@@H]3C[C@H](C)CNC3=O)c(C3CCOCC3)nc2n1)C1CCC(F)(F)CC1` [Compound 388] the same measures were more than 1000 nM and less than 100 nM.
Taken in the same sequence, the figures for `CCn1nccc1C(=O)N[C@H](c1cn2nc(CC3C[C@@H](C(F)(F)F)CNC3=O)c(N3C[C@H]4CC[C@@H](C3)O4)nc2n1)C1CCC(F)(F)CC1` (single isomer, unassigned) [Compound 83] were 100 to 1000 nM and less than 100 nM.
In the case of `CCn1nccc1C(=O)N[C@H](c1cn2nc(C[C@H]3C[C@@H](C(F)(F)F)CNC3=O)c(C3CCOC3)nc2n1)C1CCC(F)(F)CC1` (single isomer, unassigned) [Compound 61], the IC50 on IL-17A/F was 100 to 1000 nM; on IL-17A/A it was less than 100 nM.
Regarding `CCn1nccc1C(=O)N[C@H](c1cn2nc(C[C@H]3C[C@@H](C(F)(F)F)CNC3=O)c(C3CCOC3)nc2n1)[C@H]1CC[C@H](C)CC1` (single isomer, unassigned) [Compound 138], the IC50 at IL-17A/F and on IL-17A/A was less than 100 nM throughout.
In the case of `O=C(N[C@H](c1cn2nc(CC3C[C@@H](C(F)(F)F)CNC3=O)cnc2n1)C1CCC(F)(F)CC1)c1conc1CCF` (stereo partly drawn) [Compound 7, N—((S)-(4,4-difluorocyclohexyl)(2-(((5R)-2-oxo-5-(trifluoromethyl)piperidin-3-yl)methyl)imidazo[1,2-b][1,2,4]triazin-6-yl)methyl)-3-(2-fluoroethyl)isoxazole-4-carboxamide], the values for the IC50 on IL-17A/F and at IL-17A/A were more than 1000 nM and 100 to 1000 nM, respectively.
For `O=C(N[C@H](c1cn2nc(C[C@H]3C[C@@H](C(F)(F)F)CNC3=O)c(C3CCOCC3)nc2n1)C1CCC(F)(F)CC1)c1nonc1OCC(F)(F)F` [Compound 372, N—((S)-(4,4-difluorocyclohexyl)(2-(((3R,5R)-2-oxo-5-(trifluoromethyl)piperidin-3-yl)methyl)-3-(tetrahydro-2H-pyran-4-yl)imidazo[1,2-b][1,2,4]triazin-6-yl)methyl)-4-(2,2,2-trifluoroethoxy)-1,2,5-oxadiazole-3-carboxamide] the same measures were 100 to 1000 nM and less than 100 nM.

The values above are taken from patent US20260226068A1, “IMIDAZOTRIAZINE IL-17A MODULATORS AND USES THEREOF” (DICE ALPHA, INC., priority 2023, published 2026).
